Reference: patent publication US20260191900A1, “Biofilm Treatment” (Phytoceutical Limited, priority 2022, published 2026)
Converted amounts (≈) assume the structure as drawn.

How the values were obtained:
S. aureus (NCTC12493) = assay: CFU count after treatment of biofilm; assay type: cell-based, Staphylococcus aureus; conditions: FIG. 3; 10% TPGS or 0.1% PHMB with 10% TPGS; treated on any day
Experimental: (§1) The amount of biofilm remaining was determined using the CV staining method as described above. CFU count was determined by the following method: The inoculated liquid culture (grown dynamically overnight at 37° C. in liquid growth media) was spun down in a centrifuged (at max (13.3) speed for 5 minutes) (reference). The supernatant was removed and resuspend in PBS (1:100 dilution). Into each well, 20 μL of inoculated culture LB broth was added to 180 μL LB broth. […] For the untreated wells, 1 μL of PBS was added. The 96-well plate was placed in a TECAN measuring at OD600 over 24 hours at 15-minute intervals. Resulting growth kinetic experiments were conducted using mid-logarithmically growing cultures. […] Following this, the wells were homogenised, and 20 μL samples were plate spotted onto nutrient agar (NA). These plates were incubated for 18 hours at 37° C. before colonies were counted.

[1] = system: P. aeruginosa (NCTC12903) biofilm; assay: Crystal violet biofilm clearance assay; assay type: cell-based, Pseudomonas aeruginosa; conditions: for amount of biofilm present after treatment (CV stain, OD 600 nm): FIG. 2, 0.000625% PHMB, 10% TPGS, 10% EM, 6.25% EtOH, dosed at different days, 24 hours, vs untreated control; for percentage biofilm remaining / amount of biofilm remaining: FIG. 3, 0.1% PHMB, 10% TPGS or both; for percentage biofilm remaining: treated at day 0; for amount of biofilm remaining: treatment at day 1, 2 or 3
Experimental: (§2) Staphylococcus aureus (NCTC12493; MRSA) and Pseudomonas aeruginosa (NCTC12903) were stored in Pro-Lab Diagnostics Microbank (Fisher, Basingstoke UK) tubes at −80° C. before streaking onto Nutrient Agar (Oxoid, Basingstoke, UK) and incubated at 37° C., aerobically for 18 hours.
(§3) The two strains of bacteria were produced using different media, with no flocculation occurring. S. aureus was produced using Dulbecco's Modified Eagle Medium and took five to seven days to grow a mature biofilm. P. aeruginosa was produced using M9 minimal media and 1% glucose media and took three days to grow a mature biofilm. Alternatively, Luria-Bertani (LB) broth could be used to grow P. aeruginosa.
(§4) The biofilm growth method and visualisation/analysis techniques were followed from J. Merritt et al. (Curr Protoc Microbiol. (2005); Chapter 1:Unit 1B.1), with modifications. S. aureus (NCTC12493) was grown in DMEM and P. aeruginosa (NCTC12903) was grown in M9 minimal media+1% glucose. Inoculated liquid culture was diluted in 1:100 in their respective medias. Into 96-well plates, 100 μL of the inoculant was added to each well. Following this, the plate was covered with a lid and incubated at 37° C. for 24-hour intervals of up to 7 days, aerobically. The compounds were added and incubated at 37° C. for a further 24 hours. Planktonic bacteria were removed using a pipette, and the biofilms were washed with Milli-Q water. To each well, 125 μL of 0.1% crystal violet (CV) solution was added and left at room temperature for 10-15 minutes. After this, the 0.1% CV solution was removed, and the well was washed until the waste ran clear. The stain was left to air-dry, before 200 μL 30% acetic acid was added to each well for 15 minutes on a plate shaker. To a new 96-well plate, 125 μL stained biofilm solution was transferred and the optical density was read at 600 nm. A comparison was made between the uninhibited biofilm and any biofilm reductions capabilities of the added compounds.
(§5) The candidate compounds were each, therefore, applied at their respective MIC values.
(§6) Bacterial growth kinetics of S. aureus grown in DMEM and P. aeruginosa grown in M9 minimal media+1% glucose were determined. The amount of biofilm remaining was determined using the CV staining method as described above.

[2] = system: S. aureus (NCTC12493) biofilm; assay: Crystal violet biofilm clearance assay; assay type: cell-based, Staphylococcus aureus; conditions: for amount of biofilm present after treatment (CV stain, OD 600 nm): FIG. 2, 0.000625% PHMB, 10% TPGS, 10% EM, 6.25% EtOH, dosed at day 0 to 7, 24 hours, vs untreated control; for percentage biofilm remaining / amount of biofilm remaining: FIG. 3, 0.1% PHMB, 10% TPGS or both; for percentage biofilm remaining: treated at day 0; for amount of biofilm remaining: treatment at day 1, 2 or 3
Experimental: as §2, §3, §4, §5, §6

[3] = system: P. aeruginosa (NCTC12903); assay: MIC, broth microdilution; assay type: cell-based, Pseudomonas aeruginosa; conditions: for MIC: Pseudomonas aeruginosa, NCTC12903
Experimental: as §2
(§7) Minimum inhibitory concentrations (MICs) were determined using the broth microdilution method (EUCAST, Clinical Microbiology and Infection (2003), 9(8)). The inoculated liquid culture (grown dynamically overnight at 37° C. in MHB) was adjusted to obtain a ~0.1 OD at 600 nm, equivalent to a 0.5 McFarland Standard. A range of concentrations (diluted in MHB) for each of the compounds were prepared in 96-well plates, followed by the addition of the inoculated media. The plates were then incubated statically for 18 hours at 37° C. Following the incubation period, the lowest concentration of compound presenting an inhibition of bacterial growth was labelled the MIC.

[4] = system: P. aeruginosa (NCTC12903); assay: CFU count after treatment of biofilm; assay type: cell-based, Pseudomonas aeruginosa; conditions: FIG. 3; 10% TPGS or 0.1% PHMB with 10% TPGS; treated on any day
Experimental: as §1

[5] = system: S. aureus (NCTC12493; MRSA); assay: MIC, broth microdilution; assay type: cell-based, Staphylococcus aureus; conditions: for MIC: Staphylococcus aureus
Experimental: as §2, §7

[6] = Ex-vivo skin penetration, Franz diffusion cells, SRS imaging; assay type: in vitro ADME, pig
Experimental: Skin penetration studies were performed on dermatomed porcine skin, dosed using vertical Franz diffusion cells.
A scalpel was used to cut each Franz cell disc into a smaller portion for sectioning, and was sanitised with ethanol between samples. A fresh cryostat blade was used for each sample. The cryostat temperature was set to −33° C., and samples equilibrated in the cryostat for approximately 45 minutes prior to sectioning.
After 24 hours, the skin surface was cleaned and cross-sections 30 μm thick were prepared using cryosectioning and mounted onto glass coverslips. SRS (stimulated raman spectroscopy) imaging was used to observe the penetration of the composition through the skin.
SRS imaging used a Leica SP8 microscope with SRS and CARS. A PicoEmerald-S laser system output two pulsed 2 ps laser beams (a 1031 nm Stokes beam spatially and temporally overlapped with a tuneable pump beam). The Stokes beam was modulated at 20 MHz and stimulated Raman loss signals were detected in transmission using a lock-in amplifier (UHFLI, Zurich instruments). CARS and SHG/fluorescence signals were epi-detected in separate PMT channels. A water immersion×25 magnification lens (0.95 NA, Leica) was used. A short working distance air condenser (0.9 NA, Leica) was used. Laser power was 30%, which corresponded to approximately 10 mW for the pump beam and 30 mW for the Stokes beam at the sample. […]

Fibroblasts [7] = assay: SRS-SHG microscopy of fibroblasts exposed to retinol; assay type: cell-based; conditions: 0.31 μg/mL or 0.25 μg/mL; days 1, 3 and 7
Experimental: Fibroblasts were exposed to compositions containing 0.31 μg/mL or 0.25 μg/mL, and a control sample with no retinol, over a period of 7 days. SRS-SHG microscopy was used to determine absorption of the retinol by the fibroblasts at days 1, 3 and 7 after exposure.

Fibroblasts [8] = assay: Toxicity of retinol to fibroblasts; assay type: cell-based
[9] = concentration before inoculation, 18 hours at 37° C., vehicle ethanol or water
[10] = concentration before inoculation, 18 hours at 37° C., vehicle ethanol, water or none
[11] = vehicle TPGS (curcumin solubilised in TPGS)

Compound	amount of biofilm present after treatment (CV stain, OD 600 nm) [1]	percentage biofilm remaining [1]	amount of biofilm remaining [1]	amount of biofilm present after treatment (CV stain, OD 600 nm) [2]	percentage biofilm remaining [2]	amount of biofilm remaining [2]	concentration inhibiting P. aeruginosa growth (MIC) [3] [% v/v]	MIC, P. aeruginosa [3, 10]	concentration inhibiting S. aureus growth (MIC) [5] [% v/v]	MIC, S. aureus [5, 10]	MIC [3, 9] [mg/mL]	MIC [5, 9] [mg/mL]	further results
tocopheryl polyethylene glycol succinate [TPGS]	the most effective compound	fully reducing the biofilm remaining	effective	a reduction in the amount of biofilm present	fully reducing the biofilm remaining	effective	20	20 w/v %	10	20 w/v %			CFU count (S. aureus (NCTC12493)): remained substantially constant; MIC, P. aeruginosa [3, 9]: (200) mg/mL; CFU count [4]: remained substantially constant; MIC, S. aureus [5, 9]: (200) mg/mL
CCO [Ethanol]	little to no effect			at TO there was an increase in biofilm				6.25 w/v %		6.25 w/v %			
COc1cc(/C=C/C(=O)CC(=O)/C=C/c2ccc(O)c(OC)c2)ccc1O [Curcumin]								0.2 w/v %		0.2 w/v %	2 (≈ 5.43 mM)	2 (≈ 5.43 mM)	MIC, P. aeruginosa [3, 11]: 0.1 w/v %; MIC, S. aureus [5, 11]: 0.0125 w/v %
Polysorbate 40								>25% w/v %		>25% w/v %			
CC1=C(/C=C/C(C)=C/C=C/C(C)=C/CO)C(C)(C)CCC1 [Retinol]								5 w/v %		5 w/v %	50 (≈ 175 mM)	50 (≈ 175 mM)	depth through the skin down to which retinol was observed ([6]; composition comprising retinol and TPGS applied to pig skin for 24 hours): 60 μm; penetration of the retinol into the skin ([6]; similar experiment, composition including PHMB (1 wt %)): did not show penetration; response of fibroblasts (SHG signals outside of nuclei) (Fibroblasts [7]): concentration and time dependent response; concentration not toxic to fibroblasts (Fibroblasts [8]): ≤ 6000 ng/mL
polyhexamethylene biguanide [PHMB]	an increase in biofilm when dosed on T1	fully reducing the biofilm remaining	effective	good biofilm clearance	fully reducing the biofilm remaining	effective	0.005	0.005 w/v %	0.000625	0.000625 w/v %			
